Source: PubChem BioAssay (NCI)
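All cell lines were grown in 96-well plates and treated with compound for 48 hours. GI50 = concentration required for 50% inhibition of growth. Definition used: TGI = concentration required for complete inhibition of growth.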

What was measured:
Test in all cases: DTP human tumour cell line panel, 48 h
SK-MEL-2 melanoma = tested on: SK-MEL-2 melanoma
DU-145 prostate = tested on: DU-145 prostate
TK-10 renal = tested on: TK-10 renal
OVCAR-5 ovarian = tested on: OVCAR-5 ovarian
SK-MEL-28 melanoma = tested on: SK-MEL-28 melanoma
HCT-116 colon = tested on: HCT-116 colon
LOX IMVI melanoma = tested on: LOX IMVI melanoma
HOP-62 NSCLC = tested on: HOP-62 NSCLC
SF-268 CNS = tested on: SF-268 CNS
SR leukemia = tested on: SR leukemia
SF-539 CNS = tested on: SF-539 CNS
ACHN renal = tested on: ACHN renal
OVCAR-3 ovarian = tested on: OVCAR-3 ovarian
UO-31 renal = tested on: UO-31 renal
UACC-257 melanoma = tested on: UACC-257 melanoma
U251 CNS = tested on: U251 CNS
MDA-MB-435 = tested on: MDA-MB-435
CAKI-1 renal = tested on: CAKI-1 renal
HCT-15 colon = tested on: HCT-15 colon
SN12C renal = tested on: SN12C renal
NCI-H226 lung = tested on: NCI-H226 lung
SNB-19 CNS = tested on: SNB-19 CNS
786-0 renal = tested on: 786-0 renal
SK-OV-3 ovarian = tested on: SK-OV-3 ovarian
SW-620 colon = tested on: SW-620 colon
MCF7 breast = tested on: MCF7 breast
HOP-92 NSCLC = tested on: HOP-92 NSCLC
MOLT-4 leukemia = tested on: MOLT-4 leukemia
MDA-MB-231 breast = tested on: MDA-MB-231 breast
SF-295 CNS = tested on: SF-295 CNS
RPMI-8226 leukemia = tested on: RPMI-8226 leukemia
COLO 205 colon = tested on: COLO 205 colon
K-562 leukemia = tested on: K-562 leukemia
NCI-H522 lung = tested on: NCI-H522 lung
HL-60(TB) leukemia = tested on: HL-60(TB) leukemia
OVCAR-4 ovarian = tested on: OVCAR-4 ovarian
HT29 colon = tested on: HT29 colon
NCI-H460 lung = tested on: NCI-H460 lung
NCI/ADR-RES ovarian = tested on: NCI/ADR-RES ovarian
A498 renal = tested on: A498 renal
HCC-2998 colon = tested on: HCC-2998 colon
SNB-75 CNS = tested on: SNB-75 CNS
A549 NSCLC = tested on: A549 NSCLC
MALME-3M melanoma = tested on: MALME-3M melanoma
PC-3 prostate = tested on: PC-3 prostate
RXF 393 renal = tested on: RXF 393 renal
KM12 colon = tested on: KM12 colon
SK-MEL-5 melanoma = tested on: SK-MEL-5 melanoma
EKVX NSCLC = tested on: EKVX NSCLC
OVCAR-8 ovarian = tested on: OVCAR-8 ovarian
NCI-H23 lung = tested on: NCI-H23 lung
CCRF-CEM leukemia = tested on: CCRF-CEM leukemia
IGROV1 ovarian = tested on: IGROV1 ovarian
M14 melanoma = tested on: M14 melanoma
BT-549 breast = tested on: BT-549 breast
T-47D breast = tested on: T-47D breast
UACC-62 melanoma = tested on: UACC-62 melanoma
HS 578T breast = tested on: HS 578T breast

CCOc1ccn(-c2ccc(F)cc2)c(=O)c1C(=O)Nc1ccc(Oc2ccnc(N)c2Cl)c(F)c1
GI50 (SK-MEL-2 melanoma): 14 µM
TGI (SK-MEL-2 melanoma): 35.7 µM
GI50 (DU-145 prostate): 21.1 µM
TGI (DU-145 prostate): > 100 µM
GI50 (TK-10 renal): 15.1 µM
TGI (TK-10 renal): 55.2 µM
GI50 (OVCAR-5 ovarian): 12.9 µM
TGI (OVCAR-5 ovarian): 67 µM
GI50 (SK-MEL-28 melanoma): 6.7 µM
TGI (SK-MEL-28 melanoma): 59.1 µM
GI50 (HCT-116 colon): 5.35 µM
TGI (HCT-116 colon): 21.8 µM
GI50 (LOX IMVI melanoma): 5.33 µM
TGI (LOX IMVI melanoma): 19.3 µM
GI50 (HOP-62 NSCLC): 13.2 µM
TGI (HOP-62 NSCLC): > 100 µM
GI50 (SF-268 CNS): 10.9 µM
TGI (SF-268 CNS): > 100 µM
GI50 (SR leukemia): 6.17 µM
TGI (SR leukemia): 28.7 µM
GI50 (SF-539 CNS): 7.53 µM
TGI (SF-539 CNS): 34.1 µM
GI50 (ACHN renal): 9.22 µM
TGI (ACHN renal): > 89.1 µM
GI50 (OVCAR-3 ovarian): 24.3 µM
TGI (OVCAR-3 ovarian): > 100 µM
GI50 (UO-31 renal): 8.99 µM
TGI (UO-31 renal): 63.4 µM
GI50 (UACC-257 melanoma): 5.99 µM
TGI (UACC-257 melanoma): 43.4 µM
GI50 (U251 CNS): 26 µM
TGI (U251 CNS): > 100 µM
GI50 (MDA-MB-435): 6.27 µM
TGI (MDA-MB-435): 42.6 µM
GI50 (CAKI-1 renal): 7.57 µM
TGI (CAKI-1 renal): 56.4 µM
GI50 (HCT-15 colon): 10.6 µM
TGI (HCT-15 colon): > 79.6 µM
GI50 (SN12C renal): 5.03 µM
TGI (SN12C renal): > 100 µM
GI50 (NCI-H226 lung): 10.6 µM
TGI (NCI-H226 lung): > 96.1 µM
GI50 (SNB-19 CNS): 27.8 µM
TGI (SNB-19 CNS): > 100 µM
GI50 (786-0 renal): 19 µM
TGI (786-0 renal): > 100 µM
GI50 (SK-OV-3 ovarian): 11.7 µM
TGI (SK-OV-3 ovarian): 41.6 µM
GI50 (SW-620 colon): 5.01 µM
TGI (SW-620 colon): 38.4 µM
GI50 (MCF7 breast): 7.89 µM
TGI (MCF7 breast): > 100 µM
GI50 (HOP-92 NSCLC): 0.801 µM
TGI (HOP-92 NSCLC): 12.3 µM
GI50 (MOLT-4 leukemia): 5.78 µM
TGI (MOLT-4 leukemia): 59 µM
GI50 (MDA-MB-231 breast): 6.33 µM
TGI (MDA-MB-231 breast): 23.9 µM
GI50 (SF-295 CNS): 0.787 µM
TGI (SF-295 CNS): 48.3 µM
GI50 (RPMI-8226 leukemia): 14.6 µM
TGI (RPMI-8226 leukemia): > 88.8 µM
GI50 (COLO 205 colon): 2.54 µM
TGI (COLO 205 colon): 5.57 µM
GI50 (K-562 leukemia): 4.42 µM
TGI (K-562 leukemia): > 100 µM
GI50 (NCI-H522 lung): 12.3 µM
TGI (NCI-H522 lung): 69.5 µM
GI50 (HL-60(TB) leukemia): 15.3 µM
TGI (HL-60(TB) leukemia): 38.6 µM
GI50 (OVCAR-4 ovarian): 19.1 µM
TGI (OVCAR-4 ovarian): > 100 µM
GI50 (HT29 colon): 6.63 µM
TGI (HT29 colon): 82.3 µM
GI50 (NCI-H460 lung): 4.74 µM
TGI (NCI-H460 lung): > 87 µM
GI50 (NCI/ADR-RES ovarian): 13.6 µM
TGI (NCI/ADR-RES ovarian): > 65.7 µM
GI50 (A498 renal): 1.6 µM
TGI (A498 renal): 12.2 µM
GI50 (HCC-2998 colon): 38.5 µM
TGI (HCC-2998 colon): > 100 µM
GI50 (SNB-75 CNS): 2.39 µM
TGI (SNB-75 CNS): 22.5 µM
GI50 (A549 NSCLC): 9.12 µM
TGI (A549 NSCLC): 86.2 µM
GI50 (MALME-3M melanoma): 7.72 µM
TGI (MALME-3M melanoma): 46.4 µM
GI50 (PC-3 prostate): 9.02 µM
TGI (PC-3 prostate): > 100 µM
GI50 (RXF 393 renal): 7.06 µM
TGI (RXF 393 renal): 36.8 µM
GI50 (KM12 colon): 0.404 µM
TGI (KM12 colon): > 100 µM
GI50 (SK-MEL-5 melanoma): 9.99 µM
TGI (SK-MEL-5 melanoma): 25.5 µM
GI50 (EKVX NSCLC): 31.3 µM
TGI (EKVX NSCLC): > 100 µM
GI50 (OVCAR-8 ovarian): 15.2 µM
TGI (OVCAR-8 ovarian): > 100 µM
GI50 (NCI-H23 lung): 10.4 µM
TGI (NCI-H23 lung): > 100 µM
GI50 (CCRF-CEM leukemia): 3.63 µM
TGI (CCRF-CEM leukemia): 36.9 µM
GI50 (IGROV1 ovarian): 17.3 µM
TGI (IGROV1 ovarian): > 100 µM
GI50 (M14 melanoma): 3.74 µM
TGI (M14 melanoma): 16 µM
GI50 (BT-549 breast): 13.8 µM
TGI (BT-549 breast): 59.2 µM
GI50 (T-47D breast): 11.8 µM
TGI (T-47D breast): 98 µM
GI50 (UACC-62 melanoma): 2.83 µM
TGI (UACC-62 melanoma): 18.5 µM
GI50 (HS 578T breast): 3.7 µM
TGI (HS 578T breast): 30.6 µM
